Measured values as given in patent publication US9179674B2, “Macrocyclic picolinamide compounds with fungicidal activity” (DOW AGROSCIENCES LLC, priority 2013, dated 2015).
Read-outs that look alike come from different tables or passages of the source.

What was measured:
[1] = tested on: Mycosphaerella graminicola; Anamorph: Septoria tritici; assay: Leaf Blotch of Wheat fungicidal activity (SEPTTR); assay type: in vivo; conditions: Zymoseptoria tritici; for pest or weed control at 100 ppm: rate 100 ppm; for pest or weed control at 121.5 g/ha: rate 121.5 g/H
Description: Evaluation of Fungicidal Activity: Leaf Blotch of Wheat (Mycosphaerella graminicola; Anamorph: Septoria tritici; Bayer code […]) Technical grades of materials were dissolved in acetone, which were then mixed with nine volumes of water containing 110 ppm Triton X-100. The fungicide solutions were applied onto wheat seedlings using an automated booth sprayer to run-off. All sprayed plants were allowed to air dry prior to further handling. All fungicides were evaluated using the aforementioned method for their activity vs. all target diseases. Wheat leaf blotch and brown rust activity were also evaluated using track spray applications, in which case the fungicides were formulated as EC formulations, containing 0.1% Trycol 5941 in the spray solutions. Wheat plants (variety Yuma) were grown from seed in a greenhouse in 50% mineral soil/50% soil-less Metro mix until the first leaf was fully emerged, with 7-10 seedlings per pot. These plants were inoculated with an aqueous spore suspension of Septoria tritici either prior to or after fungicide treatments. After inoculation the plants were kept in 100% relative humidity (one day in a dark dew chamber followed by two to three days in a lighted dew chamber at 20° C.) to permit spores to germinate and infect the leaf. The plants were then transferred to a greenhouse set at 20° C. for disease to develop. When disease symptoms were fully expressed on the 1st leaves of untreated plants, infection levels were assessed on a scale of 0 to 100 percent disease severity. Percent disease control was calculated using the ratio of disease severity on treated plants relative to untreated plants.

[2] = tested on: Puccinia triticina; assay: Wheat Brown Rust fungicidal activity (PUCCRT); assay type: in vivo; conditions: Puccinia triticina; for pest or weed control at 100 ppm: rate 100 ppm; for pest or weed control at 121.5 g/ha: rate 121.5 g/H
Description: Technical grades of materials were dissolved in acetone, which were then mixed with nine volumes of water containing 110 ppm Triton X-100. The fungicide solutions were applied onto wheat seedlings using an automated booth sprayer to run-off. All sprayed plants were allowed to air dry prior to further handling. All fungicides were evaluated using the aforementioned method for their activity vs. all target diseases. Wheat leaf blotch and brown rust activity were also evaluated using track spray applications, in which case the fungicides were formulated as EC formulations, containing 0.1% Trycol 5941 in the spray solutions. Wheat plants (variety Yuma) were grown from seed in a greenhouse in 50% mineral soil/50% soil-less Metro mix until the first leaf was fully emerged, with 7-10 seedlings per pot. These plants were inoculated with an aqueous spore suspension of Septoria tritici either prior to or after fungicide treatments. After inoculation the plants were kept in 100% relative humidity (one day in a dark dew chamber followed by two to three days in a lighted dew chamber at 20° C.) to permit spores to germinate and infect the leaf. The plants were then transferred to a greenhouse set at 20° C. for disease to develop. When disease symptoms were fully expressed on the 1st leaves of untreated plants, infection levels were assessed on a scale of 0 to 100 percent disease severity. Percent disease control was calculated using the ratio of disease severity on treated plants relative to untreated plants. Evaluation of Fungicidal Activity: Wheat Brown Rust (Puccinia triticina; Synonym: Puccinia recondite f sp. tritici; Bayer code PUCCRT) Wheat plants (variety Yuma) were grown from seed in a greenhouse in 50% mineral soil/50% soil-less Metro mix until the first leaf was fully emerged, with 7-10 seedlings per pot. These plants were inoculated with an aqueous spore suspension of Puccinia triticina either prior to or after fungicide treatments. After inoculation the plants were kept in a dark dew room at 22° C. with 100% relative humidity overnight to permit spores to germinate and infect the leaf. The plants were then transferred to a greenhouse set at 24° C. for disease to develop. Fungicide formulation, application and disease assessment followed the procedures as described in the Example A.

[3] = 24 h, 1 Day Protectant, read-out: Disease control SEPTTR 1DP
[4] = 72 h, 3 Day Curative, read-out: Disease control SEPTTR 3DC
[5] = 24 h, 1 Day Protectant, read-out: Disease control PUCCRT 1DP
[6] = 72 h, 3 Day Curative, read-out: Disease control PUCCRT 3DC

SMILES	pest or weed control at 100 ppm [1, 3]	pest or weed control at 121.5 g/ha [1, 3]	pest or weed control at 100 ppm [1, 4]	pest or weed control at 121.5 g/ha [1, 4]	pest or weed control at 100 ppm [2, 5]	pest or weed control at 121.5 g/ha [2, 5]	pest or weed control at 100 ppm [2, 6]	pest or weed control at 121.5 g/ha [2, 6]
COc1ccnc(C(=O)N[C@H]2COC[C@H](CC(F)(F)F)[C@@H](OCC(C)C)[C@H](C)OC2=O)c1OCOC(C)=O [Compound F104]	80 to 100%	80 to 100%	80 to 100%	80 to 100%	80 to 100%	80 to 100%	80 to 100%	80 to 100%
COc1ccnc(C(=O)N[C@H]2COC[C@H](Cc3ccc(C(F)(F)F)cc3)[C@@H](OCC(C)C)[C@H](C)OC2=O)c1OC(C)=O [Compound F65]	80 to 100%	80 to 100%	80 to 100%	80 to 100%	80 to 100%	80 to 100%	80 to 100%	0 to 80%
COc1ccnc(C(=O)N[C@H]2COC[C@H](Cc3cc(F)c(F)c(F)c3)[C@@H](OCC(C)C)[C@H](C)OC2=O)c1O [Compound F40]	80 to 100%		80 to 100%		0 to 80%			
COc1ccnc(C(=O)N[C@H]2COC[C@H](Cc3ccc(C)cc3)[C@@H](OCCCC(F)(F)F)[C@H](C)OC2=O)c1OC(C)=O [Compound F62]	80 to 100%	80 to 100%	80 to 100%	80 to 100%	80 to 100%	80 to 100%	80 to 100%	0 to 80%
COc1ccnc(C(=O)N[C@H]2COC[C@H](Cc3ccc(F)cc3)[C@@H](OC3CCCC3)[C@H](C)OC2=O)c1O [Compound F18]	80 to 100%		0 to 80%		80 to 100%		80 to 100%	
COc1ccnc(C(=O)N[C@H]2COC[C@H](CCC(C)C)[C@@H](Oc3ccc(C)cc3)[C@H](C)OC2=O)c1O [Compound F37]	80 to 100%		80 to 100%		80 to 100%		0 to 80%	
COc1ccnc(C(=O)N[C@H]2COC[C@H](CCC(C)C)[C@@H](OCCCC(F)(F)F)[C@H](C)OC2=O)c1O [Compound F35]	80 to 100%		0 to 80%		80 to 100%			
COc1ccnc(C(=O)N[C@H]2COC[C@H](CC3CCCC3)[C@@H](OCC(C)C)[C@H](C)OC2=O)c1OCOC(C)=O [Compound F115]	80 to 100%	80 to 100%	80 to 100%	80 to 100%	80 to 100%	80 to 100%	80 to 100%	80 to 100%
COc1ccnc(C(=O)N[C@H]2COC[C@H](Cc3ccc(C)cc3)[C@@H](OCCCC(F)(F)F)[C@H](C)OC2=O)c1O [Compound F23]	80 to 100%		0 to 80%		80 to 100%		0 to 80%	
CCCCCO[C@@H]1[C@@H](Cc2ccc(F)cc2)COC[C@H](NC(=O)c2nccc(OC)c2OCOC(C)=O)C(=O)O[C@H]1C [Compound F95]	80 to 100%		80 to 100%		80 to 100%		80 to 100%	
COc1ccnc(C(=O)N[C@H]2COC[C@H](Cc3ccc(C)cc3)[C@@H](OC(=O)C3CC3)[C@H](C)OC2=O)c1OC(C)=O [Compound F61]	80 to 100%	80 to 100%	80 to 100%	0 to 80%	80 to 100%	80 to 100%	80 to 100%	0 to 80%
COc1ccnc(C(=O)N[C@H]2COC[C@H](CC(F)(F)F)[C@@H](OCC(C)C)[C@H](C)OC2=O)c1O [Compound F32]	80 to 100%		0 to 80%		80 to 100%		0 to 80%	
COc1ccnc(C(=O)N[C@H]2COC[C@H](CCc3ccccc3)[C@@H](OC(=O)C3CC3)[C@H](C)OC2=O)c1OC(C)=O [Compound F57]	80 to 100%	80 to 100%	80 to 100%	80 to 100%	80 to 100%	80 to 100%	80 to 100%	0 to 80%
COc1ccnc(C(=O)N[C@H]2COC[C@H](Cc3ccc(C(F)(F)F)cc3)[C@@H](OC(=O)C(C)C)[C@H](C)OC2=O)c1OCOC(C)=O [Compound F102]	80 to 100%		80 to 100%		80 to 100%		80 to 100%	
COc1ccnc(C(=O)N[C@H]2COC[C@H](Cc3ccc(C)cc3)[C@@H](OC3CCCC3)[C@H](C)OC2=O)c1O [Compound F25]	80 to 100%		80 to 100%		80 to 100%		0 to 80%	
COc1ccnc(C(=O)N[C@H]2COC[C@H](CCc3ccccc3)[C@@H](OC(=O)C3CC3)[C@H](C)OC2=O)c1O [Compound F15]	80 to 100%		80 to 100%		80 to 100%		0 to 80%	
COc1ccnc(C(=O)N[C@H]2COC[C@H](CCc3ccccc3)[C@@H](OC(=O)C3CC3)[C@H](C)OC2=O)c1OCOC(=O)C(C)C [Compound F118]	80 to 100%	80 to 100%	80 to 100%	80 to 100%	80 to 100%	80 to 100%	80 to 100%	80 to 100%
COc1ccnc(C(=O)N[C@H]2COC[C@H](CC(F)(F)F)[C@@H](OC3CCCC3)[C@H](C)OC2=O)c1O [Compound F33]	80 to 100%		0 to 80%		0 to 80%			
COc1ccnc(C(=O)N[C@H]2COC[C@H](Cc3ccc(F)cc3)[C@@H](OCC(C)C)[C@H](C)OC2=O)c1O [Compound F21]	80 to 100%		80 to 100%		80 to 100%		80 to 100%	
CCCO[C@@H]1[C@@H](Cc2ccc(C(F)(F)F)cc2)COC[C@H](NC(=O)c2nccc(OC)c2OCOC(=O)COCC)C(=O)O[C@H]1C [Compound F120, ((4-methoxy-2-(((3S,7S,8R,9S)-9-methyl-2-oxo-8-propoxy-7-(4-(trifluoromethyl)benzyl)-1,5-dioxonan-3-yl)carbamoyl)pyridin-3-yl)oxy)methyl 2-ethoxyacetate]	80 to 100%		80 to 100%		80 to 100%		0 to 80%	
CCOCC(=O)OCOc1c(OC)ccnc1C(=O)N[C@H]1COC[C@H](CC2CCCC2)[C@@H](OC(=O)C(C)C)[C@H](C)OC1=O [Compound F121]	80 to 100%	80 to 100%	80 to 100%	80 to 100%	80 to 100%	80 to 100%	80 to 100%	80 to 100%
